Reference: the supplement of paper PMC7840683

Tested on: HepaRG
Assay: LDH release cytotoxicity, % of total lysis control; higher = more cytotoxic
Settings: 48 h
In short: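 The CytoTox-ONE kit was used to read LDH in 50 µL spent medium as resorufin fluorescence on a Tecan Safire, with 0.1% Triton X added to total lysis wells. Beforehand, single-lot HepaRG cells on collagen I-coated 96-well plates had been exposed in duplicate for 48 h to eight-point half-log series (top 100 µM) in serum-free induction medium containing 0.5% DMSO. Percent cytotoxicity was normalized against on-plate vehicle and total lysis controls and averaged over duplicates.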

O=C(O)C1(C(=O)Nc2ccc(Cl)cc2Cl)CC1 [Cyclanilide]
Settings | LDH release cytotoxicity [%]
0.03162 µM | 0.835
0.1 µM | -0.444
0.3162278 µM | -0.309
1 µM | -1.03
3.16228 µM | -0.632
10 µM | 0.531
31.6228 µM | 2.66
100 µM | 4.54

CCSC(=O)N(CC)C1CCCCC1 [Cycloate]
Settings | LDH release cytotoxicity [%]
0.03162 µM | -0.645
0.1 µM | -0.297
0.3162278 µM | -0.471
1 µM | -0.678
3.16228 µM | 0.089
10 µM | 0.922
31.6228 µM | 0.446
100 µM | 1.91

OC1CCCCC1 [Cyclohexanol]
Settings | LDH release cytotoxicity [%]
0.03162 µM | -1.14
0.1 µM | -1.56
0.3162278 µM | -2.24
1 µM | -1.92
3.16228 µM | -1.56
10 µM | -0.208
31.6228 µM | -0.773
100 µM | -0.073

O=C1CCCCC1 [Cyclohexanone]
Settings | LDH release cytotoxicity [%]
0.03162 µM | -0.709
0.1 µM | -1.76
0.3162278 µM | -1.81
1 µM | -1.07
3.16228 µM | -1.46
10 µM | -1.17
31.6228 µM | -0.292
100 µM | 0.737

CC1CC(C)C(=O)C(C(O)CC2CC(=O)NC(=O)C2)C1 (stereo not given) [Cycloheximide]
Settings | LDH release cytotoxicity [%]
0.03162 µM | -0.96
0.1 µM | -0.691
0.3162278 µM | -1.8
1 µM | -1.99
3.16228 µM | -1.19
10 µM | 3.47
31.6228 µM | 24
100 µM | 61.9

NC1CCCCC1 [Cyclohexylamine]
Settings | LDH release cytotoxicity [%]
0.03162 µM | -1.45
0.1 µM | -1.58
0.3162278 µM | -1.84
1 µM | -2.2
3.16228 µM | -2.32
10 µM | -1.74
31.6228 µM | -0.752
100 µM | 0.0324

O=C(c1ccccc1)C1CCCCC1 [Cyclohexylphenylketone]
Settings | LDH release cytotoxicity [%]
0.03162 µM | -1.79
0.1 µM | -2.63
0.3162278 µM | -0.957
1 µM | -1.4
3.16228 µM | -1.03
10 µM | -0.851
31.6228 µM | -0.8
100 µM | 0.0978

CC1=C2CC3C(CC=C4CC(O)CCC43C)C2CCC12OC1CC(C)CNC1C2C (stereo not given) [Cyclopamine]
Settings | LDH release cytotoxicity [%]
0.015811 µM | -1.27
0.05 µM | -3.64
0.158114 µM | -4.31
0.5 µM | -4.01
1.58114 µM | -4.1
5 µM | -3.94
15.8114 µM | -2.45
50 µM | 0.363

O=P1(N(CCCl)CCCl)NCCCO1 (stereo not given) [Cyclophosphamide monohydrate]
Settings | LDH release cytotoxicity [%]
0.03162 µM | -1.01
0.1 µM | -1.29
0.3162278 µM | -1.53
1 µM | -1.41
3.16228 µM | -1.5
10 µM | -0.484
31.6228 µM | -0.76
100 µM | 1.23

CC1(C)C(C=C(Cl)Cl)C1C(=O)OC(C#N)c1ccc(F)c(Oc2ccccc2)c1 (stereo not given) [Cyfluthrin]
Settings | LDH release cytotoxicity [%]
0.031623 µM | 0.499
0.1 µM | -1.05
0.316228 µM | -1.18
1 µM | -1.61
3.16228 µM | -1.18
10 µM | -0.972
31.6228 µM | -0.561
100 µM | -0.122

CCCCOC(=O)C(C)Oc1ccc(Oc2ccc(C#N)cc2F)cc1 (stereo not given) [Cyhalofop-butyl]
Settings | LDH release cytotoxicity [%]
0.0314647 µM | -1.16
0.0995 µM | -1.07
0.3146466 µM | -0.775
0.995 µM | -1.29
3.14647 µM | -0.485
9.95 µM | 0.552
31.4647 µM | -0.564
99.5 µM | 0.894

CCNC(=O)NC(=O)C(C#N)=NOC [Cymoxanil]
Settings | LDH release cytotoxicity [%]
0.03162 µM | -0.835
0.1 µM | -1.41
0.3162278 µM | -2
1 µM | -1.41
3.16228 µM | -2.17
10 µM | -0.806
31.6228 µM | -0.354
100 µM | 1.89

CC1(C)C(C=C(Cl)Cl)C1C(=O)OC(C#N)c1cccc(Oc2ccccc2)c1 (stereo not given) [Cypermethrin]
Settings | LDH release cytotoxicity [%]
0.03162 µM | -0.819
0.1 µM | -1.77
0.3162278 µM | -1.92
1 µM | -2.15
3.16228 µM | -1.45
10 µM | -1.44
31.6228 µM | -0.803
100 µM | -0.801

CC(C1CC1)C(O)(Cn1cncn1)c1ccc(Cl)cc1 (stereo not given) [Cyproconazole]
Settings | LDH release cytotoxicity [%]
0.0314647 µM | -2.83
0.0995 µM | -2.41
0.3146466 µM | -3.23
0.995 µM | -3.32
3.14647 µM | -3.1
9.95 µM | -2.59
31.4647 µM | -2.12
99.5 µM | 6.32

Cc1cc(C2CC2)nc(Nc2ccccc2)n1 [Cyprodinil]
Settings | LDH release cytotoxicity [%]
0.03162 µM | -1.37
0.1 µM | -0.753
0.3162278 µM | -0.874
1 µM | -1.16
3.16228 µM | -0.24
10 µM | -0.264
31.6228 µM | 0.71
100 µM | 11.3
